This passage reports TGI results from PubChem BioAssay (NCI).

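Exposure lasted 48 hours, with cells grown in 96-well plates and compounds tested at five concentrations. TGI denotes the concentration required for complete inhibition of growth.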

Among the test systems are DLD-1 colon; SNB-19 CNS; NCI-H226 lung; HOP-62 NSCLC; HOP-92 NSCLC; SW-620 colon; SNB-78 CNS; ACHN renal; MDA-MB-435; CCRF-CEM leukemia.
Holding throughout (assay): NCI tumour cell line growth inhibition, 48 h

For `N=C(c1ccccc1)N(O)C1CCCCC1`, the TGI with DLD-1 colon, with SNB-19 CNS, in the assay with NCI-H226 lung, in the assay on HOP-62 NSCLC, in the assay on HOP-92 NSCLC and with SW-620 colon was greater than 100 µM throughout. The molecule also had a TGI with SNB-78 CNS greater than 100 µM.

On to `CC(=O)OC1CCn2nnc(COC(=O)NC(C)C)c21` (configuration not stated), for which the TGI with DLD-1 colon, in the assay on SNB-19 CNS, in the assay with ACHN renal, with NCI-H226 lung, in the assay on HOP-92 NSCLC and with SW-620 colon was greater than 100 µM each time. In the assay with SNB-78 CNS, this molecule had a TGI greater than 100 µM.

On to `COc1cc(-c2[nH]ccc2Cl)oc1C1=C2N=C3C=C2C(C(C)C)C1CCCCCCCC3` (configuration not stated), for which the TGI is 2.6 µM in the assay on DLD-1 colon; 5.92 µM with SNB-19 CNS; 3.12 µM in the assay on ACHN renal; 3.51 µM in the assay on NCI-H226 lung; 2.07 µM in the assay with HOP-62 NSCLC; 3.59 µM with HOP-92 NSCLC. For the same molecule, the TGI with MDA-MB-435 is 1.4 µM; in the assay with SW-620 colon it was 1.5 µM; in the assay with CCRF-CEM leukemia, 1.74 µM; with SNB-78 CNS, 15.5 µM.

Consider `Cc1c(C(=O)/C=C/c2ccc(Cl)cc2)[n+](=O)c2ccccc2n1[O-]`, for which the TGI with DLD-1 colon amounted to 20.4 µM; with SNB-19 CNS, 27.8 µM; in the assay on ACHN renal, 29.6 µM; with NCI-H226 lung, 33.7 µM; in the assay with HOP-62 NSCLC it was 63.5 µM; with HOP-92 NSCLC, 37.7 µM. Besides, the TGI with SW-620 colon was 21.9 µM; in the assay with CCRF-CEM leukemia it was greater than 100 µM; in the assay with SNB-78 CNS, greater than 100 µM.

Take `O=C(CCC(=O)Nc1ccc(Cl)cc1)CC(=O)c1ccc(F)cc1`: the TGI with DLD-1 colon, in the assay with SNB-19 CNS, with ACHN renal, in the assay with NCI-H226 lung, in the assay with HOP-62 NSCLC and in the assay with HOP-92 NSCLC was greater than 100 µM each time. In addition, the TGI with SW-620 colon and with SNB-78 CNS was greater than 100 µM throughout.

For the molecule `O=c1[nH]c(Br)nc2c(Br)c[nH]c12`, the TGI in the assay on DLD-1 colon, in the assay with SNB-19 CNS, with ACHN renal, in the assay on NCI-H226 lung, in the assay with HOP-62 NSCLC and in the assay with HOP-92 NSCLC was greater than 100 µM throughout. The TGI in the assay on SW-620 colon, in the assay on CCRF-CEM leukemia and in the assay with SNB-78 CNS was greater than 100 µM throughout.

Turning to `O=c1/c(=C/c2ccc(Cl)cc2Cl)sc2nc3ccccc3n12`, the TGI in the assay with DLD-1 colon, with SNB-19 CNS, in the assay on ACHN renal, in the assay on NCI-H226 lung, in the assay with HOP-62 NSCLC and in the assay on HOP-92 NSCLC was greater than 100 µM in each case. The TGI in the assay with SW-620 colon, with CCRF-CEM leukemia and with SNB-78 CNS was greater than 100 µM in each case.

In the case of `C=C1CC(CCCl)(c2ccccc2)OC1=O` (configuration not stated), the TGI with DLD-1 colon was 42.5 µM; with SNB-19 CNS, greater than 100 µM; in the assay with ACHN renal, greater than 56.3 µM; in the assay on NCI-H226 lung, greater than 100 µM; with HOP-62 NSCLC, greater than 100 µM; in the assay on HOP-92 NSCLC, 34.2 µM. In addition, the TGI was 39.5 µM with SW-620 colon, 49.2 µM in the assay on CCRF-CEM leukemia and greater than 81.8 µM in the assay on SNB-78 CNS.

For `O=Cc1ccc(-c2ccc(-c3ccc(C=O)s3)o2)s1`, the TGI in the assay on DLD-1 colon was greater than 100 µM; with SNB-19 CNS, greater than 100 µM; with ACHN renal, greater than 100 µM; with NCI-H226 lung, 2.46 µM; in the assay with HOP-62 NSCLC, greater than 100 µM; in the assay on HOP-92 NSCLC it was greater than 100 µM. The TGI with MDA-MB-435, in the assay on SW-620 colon, with CCRF-CEM leukemia and with SNB-78 CNS was greater than 100 µM each time.

Take `Nc1ccc(Nc2nc(F)nc(-c3c4ccccc4c4n3CCS4)n2)cc1`: the TGI came out at 34.8 µM in the assay with DLD-1 colon; 30.3 µM in the assay on SNB-19 CNS; 25.3 µM in the assay on ACHN renal; 25.9 µM in the assay on NCI-H226 lung; 31.3 µM in the assay with HOP-62 NSCLC; 30.5 µM in the assay with HOP-92 NSCLC. The TGI was 27.9 µM in the assay with SW-620 colon, 62.2 µM in the assay with CCRF-CEM leukemia and greater than 100 µM in the assay with SNB-78 CNS.

For the molecule `CC(=O)N1CC2Nc3ccccc3C2CC1CO` (configuration not stated), the TGI with DLD-1 colon, in the assay with SNB-19 CNS, in the assay on ACHN renal, in the assay with NCI-H226 lung, with HOP-62 NSCLC and in the assay with HOP-92 NSCLC was greater than 100 µM in each case. Besides, the TGI in the assay on SW-620 colon, in the assay on CCRF-CEM leukemia and with SNB-78 CNS was greater than 100 µM each time.

With `COc1ccc(C(c2ccc(C(C)C)cc(=O)c2O)c2c(O)cc3oc(-c4ccccc4)cc(=O)c3c2O)cc1` (configuration not stated), the TGI in the assay on DLD-1 colon is greater than 100 µM; in the assay on SNB-19 CNS, 16.7 µM; in the assay on ACHN renal, 45.6 µM; in the assay on HOP-62 NSCLC, 9.67 µM; with HOP-92 NSCLC, 3.53 µM; with SW-620 colon it was greater than 100 µM. Further, the TGI in the assay with CCRF-CEM leukemia and with SNB-78 CNS was greater than 100 µM each time.

On to `O=C1C=C(Nc2ccccc2C(=O)CC(=O)C(=O)Nc2cccc(C(F)(F)F)c2)c2ccccc2C1=O`, for which the TGI in the assay with DLD-1 colon was greater than 37.6 µM; with SNB-19 CNS, greater than 100 µM; with ACHN renal, greater than 100 µM; in the assay with NCI-H226 lung, greater than 100 µM; in the assay with HOP-62 NSCLC, greater than 72.7 µM; in the assay with HOP-92 NSCLC it was greater than 94.3 µM. In addition, the TGI in the assay with MDA-MB-435 is 20.9 µM; in the assay with SW-620 colon, 48.6 µM; in the assay on CCRF-CEM leukemia it was 44.7 µM; with SNB-78 CNS, greater than 100 µM.

On to `O=c1ccccc2cccc(O)c12`, for which the TGI in the assay with DLD-1 colon, in the assay on SNB-19 CNS, with ACHN renal, in the assay on HOP-62 NSCLC, in the assay on HOP-92 NSCLC and in the assay with SW-620 colon was greater than 100 µM in each case. In addition, the TGI with CCRF-CEM leukemia and with SNB-78 CNS was greater than 100 µM in each case.

For the molecule `COc1ccc2c3c1C(=O)CCC3CO2` (configuration not stated), the TGI in the assay with DLD-1 colon, with SNB-19 CNS, with ACHN renal, in the assay with HOP-62 NSCLC, with HOP-92 NSCLC and with SW-620 colon was greater than 100 µM each time. Further, the TGI in the assay on CCRF-CEM leukemia and with SNB-78 CNS was greater than 100 µM each time.

As to `CCCNCc1nc2ccc(Br)cc2c(=O)n1CCC`, the TGI with DLD-1 colon was 21.7 µM; with SNB-19 CNS, 30.5 µM; in the assay with ACHN renal, 29.6 µM; in the assay on NCI-H226 lung it was 26 µM; in the assay on HOP-62 NSCLC, 36.9 µM; with SW-620 colon it was 28.3 µM. The TGI in the assay on CCRF-CEM leukemia was 36.3 µM; with SNB-78 CNS, 40.6 µM.

In the case of `CCOC(=O)/N=C(\N)SCc1ccccc1`, the TGI in the assay with DLD-1 colon, with SNB-19 CNS, in the assay with ACHN renal, in the assay with NCI-H226 lung, with HOP-62 NSCLC and in the assay with HOP-92 NSCLC was greater than 100 µM in each case. Further, the TGI with SW-620 colon, in the assay on CCRF-CEM leukemia and with SNB-78 CNS was greater than 100 µM in each case.
